# In patent US9358276B2, “Methods of diagnosing and treating small intestinal bacterial overgrowth (SIBO) and SIBO-related conditions” (Cedars-Sinai Medical Center, priority 1999, dated 2016):
# Several values for one entry are separate records, joined by “and”; a condition that tells them apart may be missing. Identical values can stand only once.
# Columns and labels:
# Type in all cases: in vivo, human
# SIBO [1] = assay: Comparison of antibiotic regimes for eradicating SIBO, follow-up lactulose breath hydrogen test (LBHT)
# Experimental: Subjects were tested after an overnight fast. […] Each breath sample was then analyzed for hydrogen content with a gas chromatograph (Quintron Model DP, Quintron Instrument Co., Division of E.F. Brewer Co, Menomonee Falls, Wis. 53051), standardized using a QuinGas standard as instructed by the manufacturer. Hydrogen peaks were plotted before and after an antimicrobial treatment regimen for comparison. The normal range for the second hydrogen peak was 0 to 20 ppm. Subjects referred to the Cedars-Sinai GI Motility Program for a lactulose breath hydrogen test (LBHT) to assess SIBO were entered into a database. Those that tested positive for SIBO were given antibiotic treatment by their referring physician and in some cases, returned for a follow-up LBHT to assess eradication of SIBO. During the follow-up LBHT, subjects were asked which antibiotic they were given to treat their SIBO. The eradication rate of each antibiotic was evaluated. Of the 771 subjects in the database, 561 (73%) tested positive for SIBO. […] (See Table 1 below). […] None of the commonly used antibiotics was universally successful in eradicating overgrowth.
# SIBO [2] = assay: Neomycin treatment of chronic fatigue syndrome subjects with SIBO
# Experimental: Thirty of 202 subjects in the database ([…]) had received a diagnosis of chronic fatigue syndrome. Of these 30 subjects, 21 (70%) had SIBO as indicated by LBHT, but four out of the nine without SIBO had recently taken antibiotics. Therefore, the prevalence of SIBO was 21 out of 26 (81%) subjects with a diagnosis of CFS. After treatment with neomycin (500 mg twice daily, 10-day course), nine of the 21 subjects diagnosed with CFS, returned for follow-up LBHT and questionnaire. […] (Table 2).
# SIBO [3] = assay: Antibiotic treatment of Crohn's disease subjects with SIBO
# Experimental: To correct for selection bias, a pilot study was conducted to determine the incidence of SIBO in subjects who had received a suspected diagnosis of Crohn's disease at Cedars-Sinai Medical Center=s IBD Center within the preceding three months.
# SIBO [4] = assay: Case: depression with SIBO, neomycin; conditions: one patient
# Excerpt: A person presented with bloating, gas, abdominal distention, and cramping for a period of 3 years prior to LBHT. Symptoms of depression first appeared concurrently with the first appearance of bowel symptoms, and were serious enough that psychiatric hospitalization had been considered by their attending psychiatrist. The subject reported feeling very depressed and was convinced that life was not worth living. The subject=s LBHT indicated the presence of a SIBO condition. […] The subject had been prescribed eight different anti-depressant medications, all of which were discontinued as a result of their improvement.
# [5] = Crohn's subjects, pooled over the named antibiotics
substance,measurement,setting,value
neomycin,"success in eradicating SIBO, comparison of antibiotics",SIBO [1]; 105 subjects with follow-up LBHT,most successful
same,% Patients with SIBO Eradicated,SIBO [1]; follow-up LBHT,55%
same,eradication of SIBO (LBHT),SIBO [2]; all nine CFS subjects,at least partially eradication of SIBO
same,"VAS score Fatigue, After Antibiotic",SIBO [2]; nine CFS patients,3.5 ± 1.4
same,"VAS score Bloating, After Antibiotic","SIBO [2]; nine CFS patients, neomycin 500 mg twice daily, 10-day course",2.3 ± 1.7
same,"improvement in symptoms, breath test negative after antibiotic",SIBO [3]; [5],69±27%
same,"improvement in symptoms, subjects remaining positive on breath test after antibiotic",SIBO [3]; [5],20±0%
same,eradication of SIBO (LBHT),SIBO [3]; nine Crohn's patients,at least partially eradication of SIBO
same,overall improvement in symptoms by VAS,"SIBO [3]; nine Crohn's patients (n=8 reporting), 10-day course of 500 mg twice/daily",57±32%
same,eradication of SIBO (post-treatment LBHT),"SIBO [3]; pilot study, both subjects",completely at least partially eradicated
same,overall improvement in symptoms,"SIBO [3]; pilot study, two subjects, respectively, 10-day course",60% and 80%
same,depression,SIBO [4],completely resolved
